Data on nine compounds can be found in patent US20230364079A1, “COMPOUND AS BRAIN-PERMEABLE BTK OR HER2 INHIBITOR, PREPARATION METHOD THEREFOR, AND USE THEREOF” (CHENGDU HYPERWAY PHARMACEUTICALS CO., LTD., priority 2020, published 2023).

Structures are written as SMILES. Where a name gives a salt, the structure may show the parent alone. Bounds are passed on as bounds.

Data set [1] addresses BTK mutation-type C481S kinase (Homo sapiens (Human), UniProt Q06187, C481S). The data set can be described thus: BTK-C481S kinase activity inhibition test in vitro (Caliper EZ Reader). The format is biochemical. The procedure:
In the tests on the activity of inhibiting BTK and HER2 kinase in vitro in the examples of the present disclosure, powder of the compound was dissolved in 100% DMSO to prepare a 10 mM stock solution and stored at-20° C. in the dark. […] In addition, the compounds were subjected to experiments such as liver microsome metabolic stability, rat PK, rat brain penetration rate, and drug efficacy model in the examples of the present disclosure.
Compound powders were dissolved in 100% DMSO to make 10 mM stock solutions, which were stored at -20° C. in the dark.
2: Kinase Reaction Process
(1) Preparation of 1 × Kinase buffer.
(5) After centrifugation at 1000 rpm for 30 seconds, the reaction plate was shaken to mix well and incubated at room temperature for 10 min.
(6) A 5/3-fold final concentration of a mixed solution of ATP and Kinase substrate 2 was prepared with 1 × Kinase buffer.
(7) 15 µL of the mixed solution of ATP and substrate with 5/3-fold final concentration was added to start the reaction.
(8) The 384-well plate was centrifuged at 1000 rpm for 30 seconds, shaken to mix well, and incubated at room temperature for 10 min.
(9) 30 µL of a stop solution was added to stop the kinase reaction, and after centrifugation at 1000 rpm for 30 seconds, the plate was shaken to mix well;
(10) The conversion rate was read with Caliper EZ Reader.
where Conversion%_sample indicates the conversion rate reading of the sample; Conversion%_min is the average reading of the negative control wells, representing the conversion rate reading of the wells without enzyme activity; Conversion%_max is the average reading of the ratio of the positive control wells, representing the conversion rate reading of the wells without compound inhibition.
Dose-Response Curve Fitting
With the log value of the concentration as the X-axis, and the percentage inhibition rate as the Y-axis, the dose-effect curve was fitted using the log(inhibitor) vs. response-Variable slope of the analysis software GraphPad Prism 5, so as to determine the IC50 value of each compound on the enzyme activity.
The calculation formula was: […]

Data set [2] is described as follows: Pharmacokinetic test, oral, SD rats. It counts as in vivo. As to conditions: oral 10 mg/kg, plasma; for AUC(0-inf) / Cmax / half-life: rat; for Cmax: read-out: Cmax; for half-life: read-out: T½ (converted). On the procedure:
Each test compound was administered orally (10 mg/kg, 3 rats in each group) to SD rats for pharmacokinetic study. […] Animals were fasted overnight before oral administration, and fed again after 4 h of administration. […] At each collection time point, 3 whole blood samples were collected at a the collection volume of about 0.2-0.3 mL. […] The collected plasma was stored at -20° C. before analysis. 20 µL of plasma sample was added into a 1.6 mL 96-well deep-well plate, added with 200 µL of working internal standard solution (the same volume of vehicle was added to the blank instead of internal standard), vortexed for 1 min, and centrifuged at 5800 rpm for 10 min. 100 µL of the supernatant was added to a 96-well injection plate for LC-MS/MS analysis.

A short description of data set [3]: Liver microsome metabolic stability test, human. It counts as in vitro ADME. As to conditions: for half-life: 0.5 mg/mL protein, read-out: T½. The procedure:
(§1) 1: To the sample wells of T0, T5, T10, T20, T30, T60 and NCF60, 10 µL of the test or reference working solution and 80 µL of microsome working solution (hepatic microsome with a protein concentration of 0.5 mg/mL) were added, and to Blank60 well, only the microsome working solution was added. Then samples of the Blank60, T5, T10, T20, T30 and T60 other than T0 and NCF60 were placed in a 37° C. water bath and pre-incubated for about 10 min.
(§2) 2: To the T0 sample well, 300 µL of stop solution (containing 200 ng/mL tolbutamide and 200 ng/mL labetalol in acetonitrile solution) was added first, followed by 10 µL of NADPH regeneration system working solution.
(§3) 3: After the pre-incubation of Blank60, T5, T10, T20, T30 and T60 incubation plates, 10 µL of NADPH regeneration system working solution was added to each sample well to start the reaction, and 10 µL of 100 mM potassium phosphate buffer was added to the NCF60 sample well.
(§4) 4: After incubation for an appropriate time (such as 5, 10, 20, 30 and 60 min), to each test sample well and control well of the Blank60, T5, T10, T20, T30, T60 and NCF60 plates, 300 µL of stop solution was added to terminate the reaction.
(§5) 5: All sample plates were shaken to mix well and centrifuged at 4000 rpm for 20 min, and 100 µL of the supernatant of the test sample or control sample was taken and diluted with 300 µL of pure water for LC-MS/MS analysis.
(§6) 6: Data analysis: T½ and CLint(mic) (µL/min/mg) values were calculated according to the first-order elimination kinetics. The first-order elimination kinetics equation was: […]
In general terms: Liver microsomes are a subcellular fraction often used to study metabolism.

The next data set concerns the target BTK wild-type kinase (Homo sapiens (Human), UniProt Q06187). Put plainly: BTK kinase activity inhibition test in vitro (Caliper EZ Reader). The format is biochemical. Summed up: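 Compound (10 mM DMSO stock) preincubated with kinase 10 min at room temperature, then ATP plus kinase substrate 2 added, 10 min reaction at room temperature before stop. Substrate conversion read by Caliper mobility shift; inhibition normalised to no-enzyme and no-compound controls, IC50 by variable-slope log(inhibitor) fit.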

Data set [4] in a line: Liver microsome metabolic stability test, rat. The format is in vitro ADME. As to conditions: for half-life: 0.5 mg/mL protein, read-out: T½. The procedure: as §1, §2, §3, §4, §5, §6
The nature of data set [5]: Blood-brain barrier permeability test, SD rats (plasma, cerebrospinal fluid, brain tissue). It counts as in vivo. As to conditions: oral single dose 10 mg/kg. On the procedure:
Test Example 6: Blood-brain Barrier Permeability Test
Each test compound was administered orally at a single dose of 10 mg/kg to SD rats for pharmacokinetic study. Each group included 9 rats. The test compound was dissolved in 5% DMSO+10% solutol+85% saline, vortexed for 1-2 min, and ultrasonicated for 5-10 min to prepare into a colorless, transparent and clear administration solution. Animals were fasted overnight before administration. 1 h, 2 h, and 4 h after administration, three SD rats were selected from each group to take about 0.2-0.3 mL of blood through their orbit. The blood sample was placed on ice once collected, and centrifuged to separate the plasma within 15 min (centrifugation conditions: 8000 rpm, 1 min, room temperature). The collected plasma was stored at -20° C. before analysis. Immediately after blood collection, the cerebrospinal fluid and brain tissue were collected. The cerebrospinal fluid was draw out by dural puncture with a micro-sampler syringe under direct vision. Namely, about 100 µl of cerebrospinal fluid was collected with a 100 µl micro sample syringe from the rat that was anesthetized by chloral hydrate, with the head-fixed, the back hair-cut off, a transverse incision (2 cm) made at the line connecting the roots of the two ears, and the muscle layer of the neck and skull base bluntly scraped to expose the foramen magnum. The cerebrospinal fluid was stored at -20° C. before analysis. The rat then was sacrificed immediately, with its head cut off. The dissected brain tissue, with the surface capillaries peeled off, was weighed, added with 3 times the amount of cold saline, homogenized by a homogenizer for 1 min, and stored at -20° C. before analysis. 20 µL of plasma sample and brain homogenate sample was respectively added into 200 µL of working internal standard solution (the same volume of vehicle was added to the blank instead of internal standard), vortexed for 1 min, and centrifuged at 13500 rpm for 10 min. 100 µL of the supernatant was taken and analyzed by LC-MS/MS. 20 µL of the cerebrospinal fluid was added into 60 µL of working internal standard solution (the same volume of vehicle, instead of internal standard, was added to the blank), vortexed for 1 min, and centrifuged at 13500 rpm for 10 min. 50 µL of the supernatant was taken and analyzed by LC-MS/MS.

The subject of data set [6] is relapsed/refractory central nervous system lymphoma. The note with it: relapsed or refractory PCNSL patients; cited from earlier work.

Chain of BTK wild-type kinase (Q06187 whole entry): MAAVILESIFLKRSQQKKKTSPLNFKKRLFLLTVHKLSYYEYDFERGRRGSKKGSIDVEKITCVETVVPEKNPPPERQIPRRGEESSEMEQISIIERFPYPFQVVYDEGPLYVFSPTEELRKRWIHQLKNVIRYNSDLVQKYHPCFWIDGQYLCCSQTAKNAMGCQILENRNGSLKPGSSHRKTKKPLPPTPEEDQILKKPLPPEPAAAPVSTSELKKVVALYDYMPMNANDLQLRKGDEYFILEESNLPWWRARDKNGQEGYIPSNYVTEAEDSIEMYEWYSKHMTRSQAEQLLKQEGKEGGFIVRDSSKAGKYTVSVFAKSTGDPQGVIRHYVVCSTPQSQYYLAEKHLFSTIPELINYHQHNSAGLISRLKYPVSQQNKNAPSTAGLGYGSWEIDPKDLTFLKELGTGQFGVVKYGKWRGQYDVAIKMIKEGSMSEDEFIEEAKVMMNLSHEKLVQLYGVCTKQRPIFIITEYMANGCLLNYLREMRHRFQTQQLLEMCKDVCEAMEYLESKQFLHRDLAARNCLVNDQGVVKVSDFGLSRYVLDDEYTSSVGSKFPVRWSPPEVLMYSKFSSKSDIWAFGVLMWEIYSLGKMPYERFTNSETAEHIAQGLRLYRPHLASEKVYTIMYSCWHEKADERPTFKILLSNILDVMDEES
Chain of BTK mutation-type C481S kinase (Q06187 whole entry C481S): as the sequence (Q06187 whole entry) above, with C481S counted along it

On to `Nc1nccn2c(C34CCC(CO)(CC3)OC4)nc(-c3ccc(C(=O)Nc4ccccn4)cc3)c12` [Compound 34], for which the IC50 (in data set [1]; at BTK wild-type kinase) was 5 to 20 nM in each case. Also, the “Cl” value in data set [2] turned out to be 0.486 L/h/kg. In data set [2], the AUC(0-inf) (commonly total exposure, with the tail of the curve extrapolated) is 20.6 µg·h/mL. In data set [2], the Cmax (usually the peak of the concentration-time curve) was 11.1 µg/mL. For the same compound, the half-life in data set [2] is 1.7 h; in data set [3] (liver microsomes), above 2.42 h; in data set [4] (liver microsomes), above 2.42 h. Moreover, the “%Remaining (60 min)” value in data set [3] was 112.0%; in data set [4], 90.3%.
Consider `Nc1nccn2c(C3CCC(CO)OC3)nc(-c3ccc(C(=O)Nc4cc(C(F)(F)F)ccn4)cc3)c12` (single isomer, unassigned) [Compound 109-P1], for which the IC50 (as a rule, the point on the concentration scale where inhibition reaches its midpoint) in data set [1] is below 5 nM. For the same compound, in data set [2], the “Cl” value stood at 0.097 L/h/kg, the AUC(0-inf) stood at 104 µg·h/mL, the peak concentration (Cmax) was determined as 16.7 µg/mL and the half-life was 2.83 h. Also, the “%Remaining (60 min)” value in data set [3] came to 85.4%. For the same compound, in data set [3] (liver microsomes), the microsomal CLint (commonly a measure of how fast metabolising enzymes remove a compound, apart from limits set by blood flow) was below 9.6 µL/min/mg and the half-life was above 2.42 h. In addition, the IC50 against BTK wild-type kinase was below 5 nM. Besides, in data set [4], the “%Remaining (60 min)” value was 72.7%. In data set [4] (liver microsomes), the microsomal CLint amounted to 12.2 µL/min/mg and the half-life came out at 1.9 h.
Take `Nc1nccn2c(C34CCC(CO)(CC3)OC4)nc(-c3ccc(C(F)(F)c4cccc(F)c4Cl)cc3)c12` [Compound 146]: in data set [5] (1 h), the Brain tissue/plasma stood at 78%, the Cerebrospinal fluid/plasma is given as 7.2%, the “Drug concentration in brain tissue” value is given as 296 ng/g and the “Drug concentration in cerebrospinal fluid” value turned out to be 0.0274 µg/mL. Besides, the Plasma drug concentration in data set [5] (1 h) turned out to be 0.38 µg/mL. Further, in data set [5] (4 h), the Brain tissue/plasma is 110%, the Cerebrospinal fluid/plasma turned out to be 9.2%, the “Drug concentration in brain tissue” value is given as 410 ng/g and the “Drug concentration in cerebrospinal fluid” value stood at 0.0343 µg/mL. Further, the Plasma drug concentration in data set [5] (4 h) is 0.373 µg/mL.
On to `Nc1nccn2c(C3CCC(CO)OC3)nc(-c3ccc(C(F)(F)c4ccccc4)cc3)c12` (stereo not shown) [Compound 111], for which the IC50 (in data set [1]; at BTK wild-type kinase) was below 5 nM in each case. In addition, the “Cl” value in data set [2] came to 1.07 L/h/kg. Further, the AUC(0-inf) in data set [2] was determined as 9.63 µg·h/mL. In addition, in data set [2], the Cmax amounted to 1.78 µg/mL. The half-life in data set [2] is 3.15 h; in data set [3] (liver microsomes), 2.12 h; in data set [4] (liver microsomes), 0.887 h. Moreover, the figures for the “%Remaining (60 min)” value in data set [3] and in data set [4] were 73.5% and 46%, respectively.
On to `COc1cccc(Oc2ccc(-c3nc(C4CCC(CO)OC4)n4ccnc(N)c34)cc2)c1F` (stereo not shown) [Compound 5], for which the IC50 (in data set [1]; against BTK wild-type kinase) was below 5 nM in each case. Moreover, the “Cl” value in data set [2] was found to be 4.148 L/h/kg. Moreover, in data set [2], the AUC(0-inf) stood at 2.52 µg·h/mL. For the same compound, in data set [2], the Cmax stood at 0.463 µg/mL. Further, the half-life was 1.17 h in data set [2], 0.595 h in data set [3] (liver microsomes) and 0.19 h in data set [4] (liver microsomes). In addition, the figures for the “%Remaining (60 min)” value in data set [3] and in data set [4] were 31.7% and 12.7%, respectively.
As for `N#Cc1ccnc(NC(=O)c2ccc(-c3nc(C4CCC(CO)OC4)n4ccnc(N)c34)cc2)c1` (stereo not shown) [Compound 103], the IC50 (in data set [1]; at BTK wild-type kinase) was below 5 nM in each case. For the same compound, the “Cl” value in data set [2] was determined as 1 L/h/kg. This compound registered an AUC(0-inf) in data set [2] of 10.4 µg·h/mL. For the same compound, in data set [2], the Cmax turned out to be 4.73 µg/mL. In addition, the half-life in data set [2] was 1.73 h; in data set [3] (liver microsomes), above 2.42 h; in data set [4] (liver microsomes), above 2.42 h. The “%Remaining (60 min)” value worked out at 100.3% in data set [3] and 85.7% in data set [4].
As to `Nc1nccn2c(C3CCC(CO)OC3)nc(-c3ccc(Cc4ccccc4)cc3)c12` (stereo not shown) [Compound 106], the IC50 (in data set [1]; at BTK wild-type kinase) was below 5 nM throughout. For the same compound, the “Cl” value in data set [2] came to 3.885 L/h/kg. The area under the curve AUC(0-inf) in data set [2] amounted to 2.58 µg·h/mL. Moreover, the Cmax in data set [2] came out at 1.22 µg/mL. Further, the half-life was 1.87 h in data set [2], 1.76 h in data set [3] (liver microsomes) and 0.782 h in data set [4] (liver microsomes). The figures for the “%Remaining (60 min)” value in data set [3] and in data set [4] were 66.3% and 39.1%, respectively.
In the case of `CC#CC(=O)N1CC[C@@H](n2c(=O)n(-c3ccc(Oc4ccccc4)cc3)c3c(N)ncnc32)C1` [Velexbru, Tirabrutinib hydrochloride], the “patients who achieved effective remission” value in data set [6] is reported as 52.9%.
For the compound `Nc1nccn2c(C3CCC(CO)OC3)nc(-c3ccc(Oc4cccc(F)c4F)cc3)c12` (stereo not shown) [Compound 8], the IC50 (in data set [1]; against BTK wild-type kinase) was below 5 nM throughout. In addition, the “%Remaining (60 min)” value was determined as 37.4% in data set [3] and 13.6% in data set [4]. The results for the half-life in data set [3] (liver microsomes) and in data set [4] (liver microsomes) were 0.682 h and 0.347 h, respectively.
